{"source": "patent US5976813A", "about": "“Continuous format high throughput screening” (priority 1997, dated 1999)", "key": {"VanA": {"test_system": "VanA", "details": "statement on known inhibitor used as positive control; cited from earlier work"}, "IL-8a receptor": {"test_system": "IL-8a receptor", "assay": "Gel/filter CF-HTS control: ^125 I-IL-8 binding to HEK cells expressing the IL-8a receptor", "details": "^125 I-IL-8 in agarose gel diffusing through cell matrix; FIG. 12", "method": "HEK cells (ATCC, Bethesda, M.D.) expressing the IL-8a receptor were plated on a 75 mm diameter transwell membrane filter (Corning Costar Corp, Cambridge, Mass.) at a density of about 20 million cells per plate. They were allowed to attach to the membrane filter overnight in buffer (RPMI from Life Technologies, Grand Island, N.Y.) containing 10 mM Hepes (Sigma, St Louis, Mo.) at pH 7.2 and 37° C. After the cells were attached to the filter, the media was removed, and the cells were washed with fresh buffer to remove any unattached cells. The filters were inverted cell-side down and placed at an angle to allow excess media to drain, and then dried for 20 minutes. This was timed so that the cell matrix could be immediately used in the assay described below.\nThe ligand matrix was prepared by soaking ^125 I labeled IL-8 (Amersham, Inc., Arlington Heights, Ill.) into an agarose gel made by mixing 0.1 g agarose with 10 ml buffer, heating until molten, and then casting in a 8×7×0.075 cm gel apparatus. The gels were soaked overnight at RT while slowly mixing on a rotating platform (New Brunswick Scientific Co., Inc, Edison, N.J.). After soaking, the gels were dried for 20 minutes at RT just prior to use. This was timed so that the gel could be immediately used in the assay. […]"}, "[1]": {"target": "S. Cerevisiae Elongation Factor 3 (Saccharomyces cerevisiae, UniProt P16521)", "sequence (P16521 whole entry)": "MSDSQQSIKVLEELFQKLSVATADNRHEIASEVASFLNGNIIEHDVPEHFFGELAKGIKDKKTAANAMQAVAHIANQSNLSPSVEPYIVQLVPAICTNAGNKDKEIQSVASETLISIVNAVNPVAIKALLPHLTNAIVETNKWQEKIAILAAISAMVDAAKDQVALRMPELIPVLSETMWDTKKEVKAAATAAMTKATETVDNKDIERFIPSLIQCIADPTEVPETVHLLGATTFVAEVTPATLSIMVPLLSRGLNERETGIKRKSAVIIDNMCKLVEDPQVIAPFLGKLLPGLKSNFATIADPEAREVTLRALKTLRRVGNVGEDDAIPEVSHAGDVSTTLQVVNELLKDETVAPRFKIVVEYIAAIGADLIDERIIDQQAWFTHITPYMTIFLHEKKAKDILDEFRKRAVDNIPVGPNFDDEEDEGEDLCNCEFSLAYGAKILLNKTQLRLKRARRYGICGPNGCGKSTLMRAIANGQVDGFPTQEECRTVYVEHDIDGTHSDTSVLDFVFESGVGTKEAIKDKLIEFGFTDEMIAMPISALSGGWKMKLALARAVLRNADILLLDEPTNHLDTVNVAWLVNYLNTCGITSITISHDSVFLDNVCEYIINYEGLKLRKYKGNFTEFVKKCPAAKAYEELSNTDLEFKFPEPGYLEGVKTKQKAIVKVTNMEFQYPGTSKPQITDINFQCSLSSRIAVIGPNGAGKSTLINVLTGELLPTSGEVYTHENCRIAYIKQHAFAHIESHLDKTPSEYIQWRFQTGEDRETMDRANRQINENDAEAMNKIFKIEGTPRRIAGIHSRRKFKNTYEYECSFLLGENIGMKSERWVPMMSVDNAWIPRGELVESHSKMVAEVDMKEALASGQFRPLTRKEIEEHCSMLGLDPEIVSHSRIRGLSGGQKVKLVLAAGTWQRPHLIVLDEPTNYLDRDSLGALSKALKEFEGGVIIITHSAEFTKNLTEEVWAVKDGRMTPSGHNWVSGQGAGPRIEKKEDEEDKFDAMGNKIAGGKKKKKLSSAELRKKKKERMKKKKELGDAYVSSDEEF", "assay": "Two-step gel assay for phosphate generated by EF-3 ATPase activity stimulated by ribosome binding", "format": "biochemical", "details": "inhibitor amounts 5 picomole to 200 picomole; FIG. 7", "method": "A two-step gel assay for detecting phosphate generated by S. Cerevisiae Elongation Factor 3 ATPase activity stimulated by Ribosomes binding\nWhen fungal elongation factor 3 (EF-3) interacts with ribosomes, […] is stimulated. The inventors have applied CF-HTS to the assay for this activity.\nAn enzyme gel containing EF-3 (a highly temperature sensitive enzyme) and yeast ribosomes in EF-3 assay buffer was prepared. A substrate gel containing 1 mM ATP in assay buffer was also prepared. Both gels contained 2% dimethyl sulfoxide in low melting agarose (Gibco BRL), and were prepared at 37° C. and allowed to set for 30 minutes at 4° C. Serial dilutions of Poly-L-lysine, an inhibitor of EF-3 used as a control sample, was spotted onto PVDC film and dried (sample matrix). The assay was then conducted as in Example 1 by pre-incubating the enzyme gel with the inhibitors on the sample matrix. Then the enzyme gel was placed in contact with the substrate gel for 20 minutes. As in Example 1, the enzyme and substrate gels were stained with Malachite green/Ammonium Molybdate color development cocktail. Then the enzyme gel was imaged with a CCD camera. The inhibitor spots appear as clearer zones in a green background. FIG. 7 illustrates color development on the gel where inhibitor amounts varied from 5 picomole to 200 picomole."}}}
{"molecule": "N[C@@H]1CONC1=O", "note": "[D-cycloserine]", "values": [{"measurement": "inhibition of VanA", "setting": "VanA", "value": "inhibits VanA in a dose-dependent manner"}]}
{"molecule": "^125 I-IL-8: ^125 I labeled IL-8 (Amersham)", "values": [{"measurement": "binding to HEK cells expressing the IL-8a receptor", "setting": "IL-8a receptor", "value": "dose response"}]}
{"molecule": "Poly-L-lysine", "values": [{"measurement": "inhibition of EF-3 in gel assay (clearer zones in green background)", "setting": "[1]", "value": "dose dependent signal of the inhibitor"}]}
